Patent publication US11773078B2, “Furin inhibitors” (Glaxosmithkline Intellectual Property Development Limited, priority 2018, dated 2023)

Legend:
[1] = target: T1, Furin (108-574-Tev-Flag-His) enzyme (Homo sapiens, UniProt P09958); experiment: Furin enzyme assay; type: biochemical
T1 construct: Furin (108-574-Tev-Flag-His) enzyme was expressed and purified from CHO cells; TEV cleavage site (C); FLAG (C); His (C); made in house; host or cells: CHO cells
Experimental: Reactions were performed in black 384-well polystyrene low volume plates (Greiner). Furin (108-574-Tev-Flag-His) enzyme was expressed and purified from CHO cells. Compounds of the invention were dissolved in DMSO (1.0 mM) and serially diluted 1 to 3 with DMSO through eleven dilutions to provide a final compound concentration range from 0.00017 to 10 μM. 0.05 μL of each concentration was transferred to the corresponding well of an assay plate, and then 5 μL of 40 pM furin enzyme in assay buffer (100 mM HEPES pH7.5, 1 mM CaCl2 and 0.005% Triton X-100) was added using a Multidrop Combi (Thermo) to the compound plates, and mixed by inversion. […] The plates were centrifuged at 500×g for 1 minute and incubated at room temperature for two hours. Enzyme inhibition is then quantified using an Envision instrument (PerkinElmer).
Data were analyzed using AbaseXE 7.3, utilizing a four-parameter curve fit equation. The following values were used to define limits and/or constraints for each of the four parameters: • Minimum—limit −10 to 10 • Maximum—90 to 110 • Slope—limit 0.5 to 2.0 • pXC50 confidence interval—10
Raw counts obtained from the respective plate reader (Perkin Elmer) were captured for data analysis. Curves were generated using the equation: Y=A+[(B−A)/(1+(10^C/x)^D)] • where: A=minimum response • B=maximum response • C=log 10*XC50 • D=slope factor • x=log 10 compound concentration [M]
The results were recorded as pXC50 values (−C in the above equation)

[2] = target: T2, furin (endogenous protease) in U20S cells (Homo sapiens, UniProt P09958); experiment: Furin cell-based assay (image-based, Golgi-targeted GFP with BMP10 furin/PCSK cleavage site); details: 24-hour incubation, read-out: furin golgi cell pXC50 (converted);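 further: Read-out is mean GFP fluorescence of Golgi puncta per cell by high-content imaging, retained when furin inhibited, over an eleven-point 0.00017–10 µM series, four-parameter fit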
T2 construct: the endogenous protease cleaves GFP; endogenous in cells; host or cells: U2OS cells transduced with a BacMam reporter
T2 sequence (P09958 108-794): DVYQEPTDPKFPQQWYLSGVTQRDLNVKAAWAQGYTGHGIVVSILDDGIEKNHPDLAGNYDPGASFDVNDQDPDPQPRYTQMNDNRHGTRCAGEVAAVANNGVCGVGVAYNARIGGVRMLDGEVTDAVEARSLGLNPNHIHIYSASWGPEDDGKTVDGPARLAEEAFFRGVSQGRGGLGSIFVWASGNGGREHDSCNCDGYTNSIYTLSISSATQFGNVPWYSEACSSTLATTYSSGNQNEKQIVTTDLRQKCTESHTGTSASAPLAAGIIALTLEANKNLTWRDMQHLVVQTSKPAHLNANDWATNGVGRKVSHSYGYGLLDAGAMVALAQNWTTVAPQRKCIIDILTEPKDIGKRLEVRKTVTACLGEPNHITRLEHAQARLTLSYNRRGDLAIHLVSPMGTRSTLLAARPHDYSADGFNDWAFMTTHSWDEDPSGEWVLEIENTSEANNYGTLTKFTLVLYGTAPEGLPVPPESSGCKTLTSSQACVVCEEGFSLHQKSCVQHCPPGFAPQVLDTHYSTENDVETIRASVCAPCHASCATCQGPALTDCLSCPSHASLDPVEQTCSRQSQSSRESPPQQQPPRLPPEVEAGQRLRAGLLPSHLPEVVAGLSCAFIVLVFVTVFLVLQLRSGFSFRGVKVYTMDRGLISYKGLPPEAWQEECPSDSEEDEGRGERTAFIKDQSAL

T1 sequence (P09958 108-574): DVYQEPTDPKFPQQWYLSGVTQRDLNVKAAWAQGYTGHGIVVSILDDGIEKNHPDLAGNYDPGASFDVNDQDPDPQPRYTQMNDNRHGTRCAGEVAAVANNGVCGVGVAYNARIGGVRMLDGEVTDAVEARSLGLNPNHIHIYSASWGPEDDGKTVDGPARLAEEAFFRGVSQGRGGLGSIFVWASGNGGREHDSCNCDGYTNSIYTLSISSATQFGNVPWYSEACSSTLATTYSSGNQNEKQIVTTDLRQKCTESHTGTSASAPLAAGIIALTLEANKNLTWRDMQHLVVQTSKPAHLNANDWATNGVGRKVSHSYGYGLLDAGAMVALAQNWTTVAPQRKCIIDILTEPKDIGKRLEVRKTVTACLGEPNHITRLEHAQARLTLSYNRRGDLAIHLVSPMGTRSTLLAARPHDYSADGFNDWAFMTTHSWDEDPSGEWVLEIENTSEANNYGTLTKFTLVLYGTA

Compound | furin enzyme pIC50 [1] | EC50 [2]
CNC(=O)NCC1CCN(Cc2cc(Oc3cnc(N4CCN(C(C)CCS(C)(=O)=O)CC4)nc3)nc(-c3cc(Cl)cc(Cl)c3)c2)CC1 (stereo not shown) [Example 18, 1-((1-((2-(3,5-dichlorophenyl)-6-((2-(4-(4-(methylsulfonyl)butan-2-yl)piperazin-1-yl)pyrimidin-5-yl)oxy)pyridin-4-yl)methyl)piperidin-4-yl)methyl)-3-methylurea] | 10.7 | 0.501 nM
CNC(=O)NCC1CCN(Cc2cc(Oc3cnc(N4CCN(C(C)CCO)CC4)nc3)nc(-c3cc(Cl)cc(Cl)c3)c2)CC1 (stereo not shown) [Example 20, 1-((1-((2-(3,5-dichlorophenyl)-6-((2-(4-(4-hydroxybutan-2-yl)piperazin-1-yl)pyrimidin-5-yl)oxy)pyridin-4-yl)methyl)piperidin-4-yl)methyl)-3-methylurea] | 9.6 | 1 nM
CC(CO)N1CCN(c2ncc(Oc3cc(CN4CCC(CC(=O)O)CC4)cc(-c4cc(Cl)cc(Cl)c4)n3)cn2)CC1 (stereo not shown) [Example 21, 2-(1-((2-(3,5-dichlorophenyl)-6-((2-(4-(1-hydroxypropan-2-yl)piperazin-1-yl)pyrimidin-5-yl)oxy)pyridin-4-yl)methyl)piperidin-4-yl)acetic acid] | 9.9 | 6.31 nM
O=C(O)CC1CCN(Cc2cc(Oc3cnc(N4CCN(C5CC(O)C5)CC4)nc3)nc(-c3cc(Cl)cc(Cl)c3)c2)CC1 (stereo not shown) [Example 22, 2-(1-((2-(3,5-dichlorophenyl)-6-((2-(4-(3-hydroxycyclobutyl)piperazin-1-yl)pyrimidin-5-yl)oxy)pyridin-4-yl)methyl)piperidin-4-yl)acetic acid] | 9.5 | 10 nM
O=C(O)CC1CCN(Cc2cc(Oc3cnc(N4CCN(C(CO)CO)CC4)nc3)nc(-c3cc(Cl)cc(Cl)c3)c2)CC1 [Example 23, 2-(1-((2-(3,5-dichlorophenyl)-6-((2-(4-(1,3-dihydroxypropan-2-yl)piperazin-1-yl)pyrimidin-5-yl)oxy)pyridin-4-yl)methyl)piperidin-4-yl)acetic acid] | 8.3 | 15.8 nM
C[C@]1(O)C[C@@H](N2CCN(c3ncc(Oc4cc(CN5CCC(CC(=O)O)CC5)cc(-c5cc(Cl)cc(Cl)c5)n4)cn3)CC2)C1 [Example 24, 2-(1-((2-(3,5-dichlorophenyl)-6-((2-(4-((1s,3s)-3-hydroxy-3-methylcyclobutyl)piperazin-1-yl)pyrimidin-5-yl)oxy)pyridin-4-yl)methyl)piperidin-4-yl)acetic acid] | 8.6 | 12.6 nM
C[C@]1(O)C[C@H](N2CCN(c3ncc(Oc4cc(CN5CCC(CC(=O)O)CC5)cc(-c5cc(Cl)cc(Cl)c5)n4)cn3)CC2)C1 [Example 25, 2-(1-((2-(3,5-dichlorophenyl)-6-((2-(4-((1r,3r)-3-hydroxy-3-methylcyclobutyl)piperazin-1-yl)pyrimidin-5-yl)oxy)pyridin-4-yl)methyl)piperidin-4-yl)acetic acid] | 8.2 | 12.6 nM
CC(=O)NCC1CCN(Cc2cc(Oc3ccc(N4CCN(CC5(CO)CC5)CC4)nc3)nc(-c3cc(Cl)cc(Cl)c3)c2)CC1 [Example 34, N-((1-((2-(3,5-Dichlorophenyl)-6-((6-(4-((1-(hydroxymethyl)cyclopropyl)methyl)piperazin-1-yl)pyridin-3-yl)oxy)pyridin-4-yl)methyl)piperidin-4-yl)methyl)acetamide] | 9.4 | 5.01 nM

Continued, values first:

furin enzyme pIC50 [1] | EC50 [2] | Compound
10.2 | 0.398 nM | CC(=O)NCC1CCN(Cc2cc(Oc3cnc(N4CCN(C(C)CCS(C)(=O)=O)CC4)nc3)nc(-c3cc(Cl)cc(Cl)c3)c2)CC1 (stereo not shown) [Example 19, N-((1-((2-(3,5-dichlorophenyl)-6-((2-(4-(4-(methylsulfonyl)butan-2-yl)piperazin-1-yl)pyrimidin-5-yl)oxy)pyridin-4-yl)methyl)piperidin-4-yl)methyl)acetamide]
9.9 | 1.58 nM | CC(=O)NCC1CCN(Cc2cc(Oc3ccc(N4CCN([C@H]5C[C@H](NS(C)(=O)=O)C5)CC4)nc3)nc(-c3cc(Cl)cc(Cl)c3)c2)CC1 [Example 26, N-((1-((2-(3,5-Dichlorophenyl)-6-((6-(4-((trans)-3-(methylsulfonamido)cyclobutyl)piperazin-1-yl)pyridin-3-yl)oxy)pyridin-4-yl)methyl)piperidin-4-yl)methyl)acetamide]
9.6 | 3.16 nM | CC(=O)NCC1CCN(Cc2cc(Oc3ccc(N4CCN([C@H]5C[C@@H](NS(C)(=O)=O)C5)CC4)nc3)nc(-c3cc(Cl)cc(Cl)c3)c2)CC1 [Example 27, N-((1-((2-(3,5-Dichlorophenyl)-6-((6-(4-((cis)-3-(methylsulfonamido)cyclobutyl)piperazin-1-yl)pyridin-3-yl)oxy)pyridin-4-yl)methyl)piperidin-4-yl)methyl)acetamide]
9 | 2 nM | CC(=O)NCC1CCN(Cc2cc(Oc3ccc(N4CCN(CCN)CC4)nc3)nc(-c3cc(Cl)cc(Cl)c3)c2)CC1 [Example 28, N-((1-((2-((6-(4-(2-Aminoethyl)piperazin-1-yl)pyridin-3-yl)oxy)-6-(3,5-dichlorophenyl)pyridin-4-yl)methyl)piperidin-4-yl)methyl)acetamide]
9 | < 0.794 nM | CC(=O)NCC1CCN(Cc2cc(Oc3ccc(N4CCN(CC(O)CCO)CC4)nc3)nc(-c3cc(Cl)cc(Cl)c3)c2)CC1 (stereo not shown) [Example 29, N-((1-((2-(3,5-Dichlorophenyl)-6-((6-(4-(2,4-dihydroxybutyl)piperazin-1-yl)pyridin-3-yl)oxy)pyridin-4-yl)methyl)piperidin-4-yl)methyl)acetamide]
9.1 | 501 nM | CC(=O)NCC1CCN(Cc2cc(Oc3ccc(N4CCN(CCP(=O)(O)O)CC4)nc3)nc(-c3cc(Cl)cc(Cl)c3)c2)CC1 [Example 30, (2-(4-(5-((4-((4-(Acetamidomethyl)piperidin-1-yl)methyl)-6-(3,5-dichlorophenyl)pyridin-2-yl)oxy)pyridin-2-yl)piperazin-1-yl)ethyl)phosphonic acid]
9.1 | 6.31 nM | CC(=O)NCC1CCN(Cc2cc(Oc3ccc(N4CCN(CCOC(N)=O)CC4)nc3)nc(-c3cc(Cl)cc(Cl)c3)c2)CC1 [Example 31, 2-(4-(5-((4-((4-(Acetamidomethyl)piperidin-1-yl)methyl)-6-(3,5-dichlorophenyl)pyridin-2-yl)oxy)pyridin-2-yl)piperazin-1-yl)ethyl carbamate]
8.7 | 10 nM | CC(=O)NCC1CCN(Cc2cc(Oc3ccc(N4CCN(CCN(C)S(C)(=O)=O)CC4)nc3)nc(-c3cc(Cl)cc(Cl)c3)c2)CC1 [Example 32, N-((1-((2-(3,5-dichlorophenyl)-6-((6-(4-(2-(N-methylmethylsulfonamido)ethyl)piperazin-1-yl)pyridin-3-yl)oxy)pyridin-4-yl)methyl)piperidin-4-yl)methyl)acetamide]
8.5 | 39.8 nM | CC(=O)NCC1CCN(Cc2cc(Oc3ccc(N4CCN(C(=O)CCC(=O)O)CC4)nc3)nc(-c3cc(Cl)cc(Cl)c3)c2)CC1 [Example 33, 4-(4-(5-((4-((4-(Acetamidomethyl)piperidin-1-yl)methyl)-6-(3,5-dichlorophenyl)pyridin-2-yl)oxy)pyridin-2-yl)piperazin-1-yl)-4-oxobutanoic acid]
